Legend:
Experiment in all cases: area under concentration-response curve (viability) (AUC (a.u.)); higher = less active
Details in all cases: 48 h
CU-ACC2 = test system: CU-ACC2
In short: (§1)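 Library compounds were dispensed at 11 concentrations (23 nL each) onto three adrenocortical carcinoma cell lines in 1,536-well plates. Luminescence was recorded after 48 h using CellTiter-Glo, and signals were normalised per plate to vehicle and empty-well controls. Fitted concentration-response curves of inhibitory or non-responding classes only supplied the AC50 and area under the curve.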

CU-ACC1 = test system: CU-ACC1
In short: as §1

NCI-H295R = test system: NCI-H295R
In short: as §1

## C[C@H]1C[C@@H](n2c(Nc3ccc(OC(F)(F)F)cc3)nc3cc(CCC(=O)O)ccc32)CC(C)(C)C1
CU-ACC2
  area under concentration-response curve: 405
CU-ACC1
  area under concentration-response curve: 424
NCI-H295R
  area under concentration-response curve: 485

## O=C1N(c2ccccc2)c2ccccc2C1(Cc1ccncc1)Cc1ccncc1
CU-ACC2
  area under concentration-response curve: 543
CU-ACC1
  area under concentration-response curve: 448
NCI-H295R
  area under concentration-response curve: 504

## C[C@H](CCC(=O)O)[C@H]1CC[C@H]2[C@@H]3[C@H](O)C[C@@H]4C[C@H](O)CC[C@]4(C)[C@H]3CC[C@]12C
CU-ACC2
  area under concentration-response curve: 558
CU-ACC1
  area under concentration-response curve: 477
NCI-H295R
  area under concentration-response curve: 485

## CC1=CC2=C(O1)C(=C3OC(=O)\C=C(C)/C3=C2)C
CU-ACC2
  area under concentration-response curve: 581
CU-ACC1
  area under concentration-response curve: 482
NCI-H295R
  area under concentration-response curve: 516

## COC(=O)Nc1nc2cc(C(=O)c3cccs3)ccc2[nH]1
CU-ACC2
  area under concentration-response curve: 516
CU-ACC1
  area under concentration-response curve: 496
NCI-H295R
  area under concentration-response curve: 382

## CC(=O)O[C@@]12CO[C@@H]1C[C@H](O)[C@]3(C)[C@@H]2[C@H](OC(=O)C4=CC=CC=C4)[C@]5(O)C[C@H](O)/C(=C(/[C@@H](O)C3=O)C5(C)C)C
CU-ACC2
  area under concentration-response curve: 539
CU-ACC1
  area under concentration-response curve: 507
NCI-H295R
  area under concentration-response curve: 491

## CN(C)c1nc(N(C)C)nc(N(C)C)n1
CU-ACC2
  area under concentration-response curve: 577
CU-ACC1
  area under concentration-response curve: 509
NCI-H295R
  area under concentration-response curve: 476

## CC/1=C/N([C@@H]2C[C@@H](O)[C@H](CO)O2)C(=O)NC1=O
CU-ACC2
  area under concentration-response curve: 425
CU-ACC1
  area under concentration-response curve: 410
NCI-H295R
  area under concentration-response curve: 404

## OC[C@H]1O[C@H]([C@H](O)[C@@H]1O)N2/C=C\C=N/C2=O
CU-ACC2
  area under concentration-response curve: 609
CU-ACC1
  area under concentration-response curve: 525
NCI-H295R
  area under concentration-response curve: 583

## CC[C@]12CC[C@H]3[C@@H](CCC/4=C/C(=O)CC[C@H]34)[C@@H]1CC[C@@]2(O)C#C
CU-ACC2
  area under concentration-response curve: 614
CU-ACC1
  area under concentration-response curve: 519
NCI-H295R
  area under concentration-response curve: 575

## CCOc1cc(/C=C2/C(=O)N(c3ccccc3)N=C2C)cc(Cl)c1OCC(=O)OC
CU-ACC2
  area under concentration-response curve: 664
CU-ACC1
  area under concentration-response curve: 587
NCI-H295R
  area under concentration-response curve: 590

## COc1cccc(Nc2c(C(N)=O)cnc3c(C)cc([S+](=O)([O-])c4cccc(C(=O)N(C)C)c4)cc23)c1
CU-ACC2
  area under concentration-response curve: 578
CU-ACC1
  area under concentration-response curve: 466
NCI-H295R
  area under concentration-response curve: 545

## O=C(O)C1CCCN(CCC=C(c2ccccc2)c2ccccc2)C1 (centres undefined)
CU-ACC2
  area under concentration-response curve: 520
CU-ACC1
  area under concentration-response curve: 540
NCI-H295R
  area under concentration-response curve: 539

## CC(C)[C@H](CO)Nc1nc(Nc2ccc(C(=O)O)c(Cl)c2)c2ncn(C(C)C)c2n1
CU-ACC2
  area under concentration-response curve: 626
CU-ACC1
  area under concentration-response curve: 529
NCI-H295R
  area under concentration-response curve: 594

## CC(C)C[C@H](CN)CC(=O)O
CU-ACC2
  area under concentration-response curve: 595
CU-ACC1
  area under concentration-response curve: 474
NCI-H295R
  area under concentration-response curve: 545

## CCN(C(=O)c1ccccc1OC)c1cc2c(cc1N1CCNC[C@H]1C)n(C)c(=O)n2C
CU-ACC2
  area under concentration-response curve: 628
CU-ACC1
  area under concentration-response curve: 544
NCI-H295R
  area under concentration-response curve: 510

## Cn1cnc(N)c2ncnc1-2
CU-ACC2
  area under concentration-response curve: 467
CU-ACC1
  area under concentration-response curve: 438
NCI-H295R
  area under concentration-response curve: 448

## CN1[C@@H]2CC(O)C[C@H]1[C@@H]1O[C@@H]12 (some centres undefined)
CU-ACC2
  area under concentration-response curve: 560
CU-ACC1
  area under concentration-response curve: 460
NCI-H295R
  area under concentration-response curve: 496

## CC1=CC/2=C(C=C1C)N(C[C@@H](O)[C@@H](O)[C@@H](O)CO)C/3=N/C(=O)NC(=O)C3=N2
CU-ACC2
  area under concentration-response curve: 586
CU-ACC1
  area under concentration-response curve: 481
NCI-H295R
  area under concentration-response curve: 505

## CC(C)(F)C[C@H](N[C@@H](c1ccc(-c2ccc([S+](C)(=O)[O-])cc2)cc1)C(F)(F)F)C(=O)NC1(C#N)CC1
CU-ACC2
  area under concentration-response curve: 587
CU-ACC1
  area under concentration-response curve: 481
NCI-H295R
  area under concentration-response curve: 527

## CO[C@H]1/C=C/O[C@@]2(C)Oc3c(C)c(O)c4c(c3C2=O)C2=NC3(CCN(CC(C)C)CC3)NC2=C(NC(=O)/C(C)=C/C=C/[C@H](C)[C@H](O)[C@@H](C)[C@@H](O)[C@@H](C)[C@H](OC(C)=O)[C@@H]1C)C4=O
CU-ACC2
  area under concentration-response curve: 607
CU-ACC1
  area under concentration-response curve: 491
NCI-H295R
  area under concentration-response curve: 530

## O=C(NCC1CCCCN1)c1cc(OCC(F)(F)F)ccc1OCC(F)(F)F (centres undefined)
CU-ACC2
  area under concentration-response curve: 527
CU-ACC1
  area under concentration-response curve: 431
NCI-H295R
  area under concentration-response curve: 525

## Cc1c(F)cccc1NC(=O)Nc1ccc(Cl)c([S+](=O)([O-])[C@H]2CCCNC2)c1O
CU-ACC2
  area under concentration-response curve: 545
CU-ACC1
  area under concentration-response curve: 540
NCI-H295R
  area under concentration-response curve: 552

## CSCC[C@H](NC(=O)[C@H](Cc1c[nH]c2ccccc12)NC(=O)CCNC(=O)OC(C)(C)C)C(=O)N[C@@H](CC(=O)O)C(=O)N[C@@H](Cc1ccccc1)C(N)=O
CU-ACC2
  area under concentration-response curve: 579
CU-ACC1
  area under concentration-response curve: 495
NCI-H295R
  area under concentration-response curve: 545

## CC1Cc2ccccc2N1NC(=O)c1ccc(Cl)c([S+](N)(=O)[O-])c1 (centres undefined)
CU-ACC2
  area under concentration-response curve: 583
CU-ACC1
  area under concentration-response curve: 488
NCI-H295R
  area under concentration-response curve: 531

## Cc1ccccc1C(C(=O)NC1CCCCC1)N(C(=O)Cn1ccnc1C)c1cccc(F)c1 (centres undefined)
CU-ACC2
  area under concentration-response curve: 593
CU-ACC1
  area under concentration-response curve: 519
NCI-H295R
  area under concentration-response curve: 539

## NC(=O)c1ncn([C@@H]2O[C@H](CO)[C@@H](O)[C@H]2O)n1
CU-ACC2
  area under concentration-response curve: 504
CU-ACC1
  area under concentration-response curve: 511
NCI-H295R
  area under concentration-response curve: 530

## Cc1nnc(C(C)C)n1C1CC2CCC(C1)N2CCC(NC(=O)C1CCC(F)(F)CC1)c1ccccc1 (centres undefined)
CU-ACC2
  area under concentration-response curve: 498
CU-ACC1
  area under concentration-response curve: 478
NCI-H295R
  area under concentration-response curve: 451

## CO[C@H]1C[C@@H]2CC[C@@H](C)[C@@](O)(O2)C(=O)C(=O)N2CCCC[C@H]2C(=O)O[C@H]([C@H](C)C[C@@H]2CC[C@@H](OC(=O)C(C)(CO)CO)[C@H](OC)C2)CC(=O)[C@H](C)/C=C(\C)[C@@H](O)[C@@H](OC)C(=O)[C@H](C)C[C@H](C)/C=C/C=C/C=C/1C
CU-ACC2
  area under concentration-response curve: 483
CU-ACC1
  area under concentration-response curve: 488
NCI-H295R
  area under concentration-response curve: 530

## C[C@H]1O[C@H]([C@H](O)[C@@H]1O)N2\C=C(F)/C(=O)NC2=O
CU-ACC2
  area under concentration-response curve: 621
CU-ACC1
  area under concentration-response curve: 559
NCI-H295R
  area under concentration-response curve: 550

## CC(C)(C)OC(=O)N[C@H]1CCCCC/C=C\[C@@H]2C[C@@]2(C(=O)N[S+](=O)([O-])C2CC2)NC(=O)[C@@H]2C[C@@H](OC(=O)N3Cc4cccc(F)c4C3)CN2C1=O
CU-ACC2
  area under concentration-response curve: 503
CU-ACC1
  area under concentration-response curve: 414
NCI-H295R
  area under concentration-response curve: 472

## Nc1cccc2c1CN([C@H]1CCC(=O)NC1=O)C2=O
CU-ACC2
  area under concentration-response curve: 544
CU-ACC1
  area under concentration-response curve: 454
NCI-H295R
  area under concentration-response curve: 498

## OC1=CC=C(C=C1)\C2=C(O)\C(=O)C3=C(O2)C=C(O)C=C3O
CU-ACC2
  area under concentration-response curve: 451
CU-ACC1
  area under concentration-response curve: 481
NCI-H295R
  area under concentration-response curve: 484

— the supplement of paper PMC10949913
